Values joined by “and” are separate entries in the source; they are usually repeats but may differ in a detail not shown here. Identical values can stand only once.
Legend:
[1] = test system: spontaneously hypertensive rats (SHR); experiment: Spontaneously hypertensive rat model: blood pressure by telemetry, area between curves (ABC); assay type: in vivo; settings: oral, 0 to 72 hours
Method: The compounds were administered at least 2 weeks after telemetry system implantation. The compound of formula (I) and the compound having PDE5-inhibitory properties were prepared in 5% arabic gum and administered by oral gavage. The acute effects of the compound of formula (I), the compound having PDE5-inhibitory properties and their combination on blood pressure were measured by collecting data at 5-minute intervals up to 72 h after oral administration. Hourly means of blood pressure were calculated for each rat. Each rat served as its own control, by using the blood pressure data of the last 24 hours before drug administration. The two curves (blood pressure of the control period and blood pressure of the treatment period) were plotted together and the area between curves (ABC) from 0 to 72 hours was calculated. The higher the ABC, the stronger the effect of the item tested for lowering blood pressure.
Spontaneously Hypertensive Rat Model
The SHR rats were purchased from Harlan (Netherlands).

[2] = test system: Dahl salt-sensitive (Dahl-S) rats; experiment: Dahl salt-sensitive rat model: blood pressure by telemetry, area between curves (ABC); assay type: in vivo; settings: oral, 0 to 72 hours
Method: Dahl Salt-Sensitive Rat Model
Dahl salt-sensitive (Dahl-S) were purchased from Harlan (Netherlands). The rats were housed by group during the acclimatization period and single-housed after implantation of the telemetry device. All animals were maintained under identical conditions and had free access to normal pelleted rat chow and water. Dahl salt-sensitive rats develop hypertension only upon exposure to salt intake. They were administered a high-salt (8%) chow diet (Purina series 5500). Five weeks after starting salt administration, a telemetry system was implanted under anaesthesia by inhalation of 2.5% isoflurane (in 70% O2+30% N2O). […]
The compounds were administered at least 2 weeks after telemetry system implantation. […] The acute effects of the compound of formula (I), the compound having PDE5-inhibitory properties and their combination on blood pressure were measured by collecting data at 5-minute intervals up to 72 h after oral administration. Hourly means of blood pressure were calculated for each rat. […] The two curves (blood pressure of the control period and blood pressure of the treatment period) were plotted together and the area between curves (ABC) from 0 to 72 hours was calculated. […]

Q: How did the “area between curves (ABC) of blood pressure, control period vs treatment period” value (“area between curves (ABC) … vs treatment period” below) ([1]; 0.3 mg/kg) turn out when `CCCNS(=O)(=O)Nc1ncnc(OCCOc2ncc(Br)cn2)c1-c1ccc(Br)cc1` [compound of formula (I)] was run?
A: The value was 44 and 38.

Q: And the “area between curves (ABC) … vs treatment period” value ([2]; 0.3 mg/kg, higher ABC = stronger blood pressure lowering)?
A: The value was 256.

Q: For `CCCc1nn(C)c2c(=O)[nH]c(-c3cc(S(=O)(=O)N4CCN(C)CC4)ccc3OCC)nc12` [sildenafil], which “area between curves (ABC) … vs treatment period” value ([1]; 30 mg/kg) is on record?
A: The value was 229.

Q: What does the source list for `CN1CC(=O)N2[C@H](c3ccc4c(c3)OCO4)c3[nH]c4ccccc4c3C[C@@H]2C1=O` [tadalafil]?
A: area between curves (ABC) of blood pressure, control period vs treatment period ([1]; 10 mg/kg): 286; area between curves (ABC) of blood pressure, control period vs treatment period ([2]; 10 mg/kg): 310
